Test results as given in patent US20040033987A1, “Phospholipid derivatives of valproic acid and mixtures thereof” (priority 2003, published 2004).
“Also recorded” adds a separate entry of the source.

Tests used:
[1] = Pharmacokinetics study in humans: plasma levels by LC-MS/MS after a single oral administration; format: in vivo, human; conditions: for time at which the peak concentration in the plasma was reached / terminal plasma half-life (t1/2): human plasma, single oral administration of C16/C18-DP-VPA (13%:87% w/w); for terminal plasma half-life (t1/2): calculated from plasma concentration-time profiles; for plasma concentration: human
Experimental: In order to assess the pharmacokinetic properties of the C16-DP-VPA and C18-DP-VPA compounds, the plasma levels of these compounds were monitored in human subjects.
Healthy male volunteers, 18-40 year old, (7 individuals for each dose tested) received, by a single oral administration, 0.3125 g, 0.625 g or 1.25 g of C16/C18-DP-VPA mixture at a ratio of C16/C18=13%: 87% (w/w). Blood samples, 10 ml each, were drawn from each individual at the time points after the administration of the drug, as indicated. The samples were centrifuged at 4° C. at 1100 g for 10 minutes immediately after collection. Plasma levels of C16-DP-VPA and C18-DP-VPA were determined using a LC-MS/MS technique. The plasma concentration profiles of C16-DP-VPA and C18-DP-VPA as monitored for 24 hours following a single oral administration 0.625 g of C16/C18-DP-VPA are shown, respectively, in FIGS. 2A and 2B.

[2] = test system: pentylenetetrazol (PTZ) induced seizure; assay: PTZ-induced seizures test in mice; format: in vivo, CD-1 mice; conditions: for time of peak activity / maximal therapeutic effect: PTZ-induced seizures, s.c. equivalent to 40 mg/kg VPA; for % Protection / Second seizure (n//N): s.c. pre-treatment equivalent to 40 mg/kg VPA
Experimental: The anti-epileptic efficacies of C16-DP-VPA, C18-DP-VPA and mixtures comprising both C16-DP-VPA and C18-DP-VPA were evaluated in mice. The protective effect of the compounds was compared at different time points following chemical seizure induction by pentylenetetrazol (PTZ).
The pentylenetetrazol (PTZ) induced seizure model in mice is an established animal model system for epilepsy. Subcutaneous injection of PTZ into control animals results in the following sequence of events: myoclonic jerks within 1-2 mins, followed by clonic and clonic-tonic seizures each lasting approximately 5-10 secs with the severity of seizures increasing with time for up to 30 mins. 80% of the first seizures are-observed within 5 mins, and 100% within 20 mins. The second seizures usually follow within 6-10 mins and subsequent seizures (if any) every 6 mins.
CD-1 mice (25-30 g) were pre-treated by subcutaneous (s.c.) injection of either C16-DP-VPA or C18-DP-VPA or a mixture thereof. The amounts used were equivalent to 40 mg/kg VPA. After different times as indicated, 1, 2 or 4 hours, a convulsive dose of pentylenetetrazol (85-100 mg/kg) was subcutaneously injected into the mice. The animals were monitored for one hour following the PTZ administration for the occurrence of episodes of clonic spasms persisting for at least 5 sec.

[3] = compared with sodium valproate; from Ser. No. 08/479,959 and WO 94/22483; listed as TVA 16; cited from earlier work
[4] = 1 hour after single oral 0.625 g C16/C18-DP-VPA
[5] = 3 hours after single oral 0.625 g C16/C18-DP-VPA
[6] = 6 hours after single oral 0.625 g C16/C18-DP-VPA
[7] = 8 hours after single oral 0.625 g C16/C18-DP-VPA
[8] = 10 hours after single oral 0.625 g C16/C18-DP-VPA
[9] = 12 hours after single oral 0.625 g C16/C18-DP-VPA

| Structure (SMILES) | time at which the peak concentration in the plasma was reached [1] [h] | terminal plasma half-life (t1/2) [1] [h] | plasma concentration [1, 4] [ng/mL] | plasma concentration [1, 5] [ng/mL] | plasma concentration [1, 6] [ng/mL] | plasma concentration [1, 7] [ng/mL] | plasma concentration [1, 8] [ng/mL] | plasma concentration [1, 9] [ng/mL] | time of peak activity / maximal therapeutic effect [2] [h] | % Protection ([2]; PTZ after 1 h) [%] | Second seizure (n//N) ([2]; PTZ after 1 h) | % Protection ([2]; PTZ after 2 h) [%] | Second seizure (n//N) ([2]; PTZ after 2 h) | % Protection ([2]; PTZ after 4 h) [%] | Second seizure (n//N) ([2]; PTZ after 4 h) | anticonvulsant activity [3] |
| --- | --- | --- | --- | --- | --- | --- | --- | --- | --- | --- | --- | --- | --- | --- | --- | --- |
| CCCCCCCCCCCCCCCCCC(=O)OC[C@H](COP(=O)([O-])OCC[N+](C)(C)C)OC(=O)C(CCC)CCC [C18-DP-VPA, 1-Stearoyl-2-valproyl-sn-glycero-3-phosphatidylcholine] | 8 | 8.3 ± 1.3 | 0 ± 0 | 58 ± 43 | 818 ± 292 | 1175 ± 137 | 949 ± 254 | 698 ± 163 | 4 | 17 | 5/6 | 14 | 6/7 | 86 | 1/7 |  |
| CCCCCCCCCCCCCCCC(=O)OC[C@H](COP(=O)([O-])OCC[N+](C)(C)C)OC(=O)C(CCC)CCC [C16-DP-VPA, 1-Palmitoyl-2-valproyl-sn-glycero-3-phosphatidylcholine] | 6 | 14.0 ± 0.6 | 13 ± 34 | 167 ± 94 | 397 ± 172 | 385 ± 140 | 368 ± 182 | 318 ± 150 | ≤ 1 | 50 | 4/8 | 25 | 6/8 | 38 | 5/8 | significant anticonvulsant activity; also recorded: more potent than sodium valproate |
